The structures appear in SMILES notation. Like-named read-outs stand apart in the source and are kept apart here.

Series [1] relates to Ctenocephalides felis. In words: Ctenocephalides felis in vitro contact test with adult cat fleas. The settings on record: application rate 5 μg/cm^2 (=500 g/ha); after 48 h; dead or moribund fleas. Type of series: in vivo. In a few lines:
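Glass tubes were coated with compound in acetone (900 ppm solution gives 5 μg/cm²), dried, then loaded with 5–10 adult cat fleas. Held horizontal at room temperature and ambient humidity for 48 h. Efficacy is the % of fleas dead or moribund (motionless or uncoordinated after knock-down).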

Series [2] deals with Rhipicephalus sanguineus. The experiment in a line: Rhipicephalus sanguineus in vitro contact test with adult brown dog ticks. Type of series: in vivo. The settings on record: application rate 5 μg/cm^2 (=500 g/ha); after 48 h; dead or moribund ticks. In a few lines:
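Adult Rhipicephalus sanguineus (5-10 per tube) held in glass tubes coated with compound from acetone solution, 900 ppm giving 5 μg/cm^2, in the dark at room temperature. After 48 h ticks put on a 45-50° C hotplate up to 5 min; motionless or uncoordinated ticks scored dead/moribund as % efficacy.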

Series [3] relates to Boophilus microplus. In words: Boophilus microplus injection test. Type of series: in vivo. To be noted: 20 μg/animal; assessed after 7 days. Here is the method: (§1) • Solvent: dimethyl sulfoxide
1 μl of the active ingredient solution is injected into the abdomen of 5 engorged adult female cattle ticks (Boophilus microplus). The animals are transferred into dishes and kept in a climate-controlled room.

Series [4] deals with Ctenocephalides felis. In words: Ctenocephalides felis oral test. Type of series: in vivo. The settings on record: 100 ppm in citrated cattle blood; after 2 days.
The subject of series [5] is Musca domestica. In words: Musca domestica test. Type of series: in vivo. The settings on record: 100 ppm; adult houseflies; after 2 days. Here is the method: as §1
To produce a suitable active ingredient formulation, 10 mg of active ingredient are mixed with 0.5 ml of dimethyl sulfoxide, and the concentrate is diluted with water to the desired concentration.
Vessels containing a sponge treated with sugar solution and the active ingredient formulation of the desired concentration are populated with 10 adult houseflies (Musca domestica).

Series [6] relates to Spodoptera frugiperda. The experiment in a line: Spodoptera frugiperda spray test. The settings on record: 100 g/ha, after 7 days; for pest or weed control at 100 g/ha: Spodoptera frugiperda, 168 h, read-out: efficacy. Type of series: in vivo.
Series [7] relates to Tetranychus urticae. The experiment in a line: Tetranychus urticae spray test, OP-resistant (bean leaf discs). To be noted: 100 g/ha; after 6 days. Type of series: in vivo. The protocol:
(§2) After 6 days, the efficacy in % is determined.

Series [8] concerns Phaedon cochleariae. The experiment in a line: Phaedon cochleariae spray test. To be noted: for pest or weed control at 100 g/ha: Phaedon cochleariae, 168 h, read-out: efficacy; for efficacy: 100 g/ha, after 7 days.
Series [9] concerns Meloidogyne incognita. The experiment in a line: Meloidogyne incognita test. Type of series: in vivo. The settings on record: 20 ppm; after 14 days. The protocol:
• Solvent: 125.0 parts by weight of acetone
To produce a suitable active compound preparation, 1 part by weight of active compound is mixed with the stated amount of solvent and the concentrate is diluted to the desired concentration with water.
Vessels are filled with sand, active compound solution, an egg/larvae suspension of the southern root-knot nematode (Meloidogyne incognita) and lettuce seeds. The lettuce seeds germinate and the plants develop. The galls develop on the roots.
After 14 days, the nematicidal efficacy in % is determined by the formation of galls. 100% means that no galls were found; 0% means that the number of galls on the treated plants corresponds to the untreated control.

Series [10] has as its system Myzus persicae. The experiment in a line: Myzus persicae spray test (Chinese cabbage leaf discs). Type of series: in vivo. The settings on record: 100 g/ha; after 6 days. Here is the method: as §2
The mark [11] stands for this setting: reversed-phase C18 HPLC column, logP, HPLC, C18, acetonitrile/water with formic acid (note a).
[12] abbreviates: reversed-phase C18 HPLC column, logP^a, HPLC-MS method a).

As for `CCC(=O)NCc1cc(-c2cnn(-c3c(Cl)cc(C(F)(C(F)(F)F)C(F)(F)F)cc3SC)c2)ccc1F` [Ia-10, N-(5-{1-[2-chloro-4-(1,1,1,2,3,3,3-heptafluoropropan-2-yl)-6-(methylsulfanyl)phenyl]-1H-pyrazol-4-yl}-2-fluorobenzyl)propanamide], the efficacy in series [1], in series [2] and in [7] was 100% in each case. Also, the “efficacy (laying of fertile eggs)” value in series [3] turned out to be 100%. Also, the “efficacy (rate of extermination)” value in series [4] and in series [5] was 100% in each case. Further, the pest or weed control at 100 g/ha in [6] and in [8] was 100% throughout. Besides, the chromatographic logP runs as follows: under setting [11], 4.29; under setting [12], 4.29.

With `CCC(=O)NCc1c(F)ccc(-c2cnn(-c3c(Cl)cc(C(F)(C(F)(F)F)C(F)(F)F)cc3C(F)F)c2)c1F` [Ia-141], the efficacy in series [2], in [6], in series [7] and in series [8] was 100% throughout. In series [3], the “efficacy (laying of fertile eggs)” value stood at 100%. Besides, the “efficacy (rate of extermination)” value in series [4] and in series [5] was 100% throughout. Further, the “nematicidal efficacy (formation of galls)” value (shortened to “nematicidal efficacy”) in [9] is given as 90%.

For the molecule `CC(=O)NCc1cc(-c2cnn(-c3c(Cl)cc(C(F)(C(F)(F)F)C(F)(F)F)cc3C#N)c2)ccc1F` [Ia-105], the “nematicidal efficacy” value in series [9] is on record as 90%. In addition, the efficacy in series [10] is given as 90%; in series [6] it was 100%; in series [7], 100%; in series [8], 100%.

With `CC(=O)N(C)Cc1cc(-c2cnn(-c3c(Cl)cc(C4(C(F)(F)F)CC4)cc3Cl)c2)ccc1F` [Ia-125], in series [9], the “nematicidal efficacy” value came to 100%.

With `CCS(=O)(=O)NCc1cc(-c2cnn(-c3c(Cl)cc(C(F)(C(F)(F)F)C(F)(F)F)cc3Cl)c2)ccc1Cl` [Ic-02, N-(2-chloro-5-{1-[2,6-dichloro-4-(1,1,1,2,3,3,3-heptafluoropropan-2-yl)phenyl]-1H-pyrazol-4-yl}benzyl)ethanesulfonamide], the pest or weed control at 100 g/ha in series [6] and in [8] was 100% in each case. The molecule further registered a chromatographic logP under setting [11] of 4.65.

For `CC(=O)NCc1cc(-c2cn(-c3c(Cl)cc(C(F)(C(F)(F)F)C(F)(F)F)cc3Cl)nn2)ccc1Cl` [I-T7-01, N-(2-chloro-5-{1-[2,6-dichloro-4-(1,1,1,2,3,3,3-heptafluoropropan-2-yl)phenyl]-1H-1,2,3-triazol-4-yl}benzyl)acetamide], the pest or weed control at 100 g/ha in [6] and in series [8] was 100% each time. For the same molecule, the efficacy in series [7] turned out to be 90%. Also, the chromatographic logP under setting [11] stood at 3.94.

For the molecule `O=C(NCc1cc(-c2cnn(-c3c(Cl)cc(C(F)(C(F)(F)F)C(F)(F)F)cc3Cl)c2)ccc1Cl)C1CC1` [Ia-25, N-(2-chloro-5-{1-[2,6-dichloro-4-(1,1,1,2,3,3,3-heptafluoropropan-2-yl)phenyl]-1H-pyrazol-4-yl}benzyl)cyclopropanecarboxamide], the efficacy in series [1] was 100%; in [2], 80%. Besides, the “efficacy (laying of fertile eggs)” value in series [3] is on record as 100%. The “efficacy (rate of extermination)” value in series [4] and in series [5] was 100% in each case. Further, the pest or weed control at 100 g/ha in series [6] stood at 100%. The chromatographic logP reads like this: under setting [11], 4.8; under setting [12], 4.8.

Regarding `CCS(=O)(=O)N(C)Cc1cc(-c2cnn(-c3c(Cl)cc(C(F)(C(F)(F)F)C(F)(F)F)cc3Cl)c2)ccc1Cl` [Ic-03, N-(2-chloro-5-{1-[2,6-dichloro-4-(1,1,1,2,3,3,3-heptafluoropropan-2-yl)phenyl]-1H-pyrazol-4-yl}benzyl)-N-methylethanesulfonamide], the pest or weed control at 100 g/ha in series [6] and in series [8] was 100% throughout. Under setting [11], the chromatographic logP amounted to 5.21.

As to `CCC(=O)NC1CCc2ccc(-c3cnn(-c4c(Cl)cc(C(F)(C(F)(F)F)C(F)(F)F)cc4OC(F)(F)F)c3)cc21` (stereo not shown) [I-Tc-01, N-(6-{1-[2-chloro-4-(1,1,1,2,3,3,3-heptafluoropropan-2-yl)-6-(trifluoromethoxy)phenyl]-1H-pyrazol-4-yl}-2,3-dihydro-1H-inden-1-yl)propanamide], in series [2], the efficacy turned out to be 100%. Besides, the “efficacy (laying of fertile eggs)” value in series [3] is on record as 100%. The “efficacy (rate of extermination)” value in series [4] was 100%. Further, in [6], the pest or weed control at 100 g/ha stood at 100%. Further, the chromatographic logP under setting [11] was 4.84.

With `CCC(=O)NCc1cccc(-c2cnn(-c3c(Cl)cc(C(F)(C(F)(F)F)C(F)(F)F)cc3Cl)c2)c1` [Ia-08], the efficacy is 100% in [1]; 80% in series [2]; 100% in series [6]; 90% in series [7]; 100% in [8]. For the same molecule, in series [3], the “efficacy (laying of fertile eggs)” value worked out at 100%. Further, the “efficacy (rate of extermination)” value in series [4] stood at 100%; in series [5] it was 80%. In series [9], the “nematicidal efficacy” value stood at 100%.

With `CCC(=O)NCc1cc(-c2cnn(-c3c(Cl)cc(C(F)(C(F)(F)F)C(F)(F)F)cc3S(C)(=O)=O)c2)ccc1F` [Ia-46, N-(5-{1-[2-chloro-4-(1,1,1,2,3,3,3-heptafluoropropan-2-yl)-6-(methylsulfonyl)phenyl]-1H-pyrazol-4-yl}-2-fluorobenzyl)propanamide], the efficacy in series [7] was 70%. Besides, the chromatographic logP is, setting by setting: under setting [11], 3.65; under setting [12], 3.65.

As for `CC(=O)NCc1cccc(-c2cnn(-c3c(Cl)cc(C(F)(C(F)(F)F)C(F)(F)F)cc3C#N)c2)c1` [Ia-102], in series [9], the “nematicidal efficacy” value was determined as 100%. In addition, the results for the efficacy in series [7] and in series [8] were 90% and 100%, respectively.

As for `CC(=O)NCc1cc(-c2cnn(-c3c(Cl)cc(C(F)(C(F)(F)F)C(F)(F)F)cc3C(F)F)c2)ccc1F` [Ia-34], the “nematicidal efficacy” value in [9] is 100%. The efficacy in [10] came to 90%; in series [6], 100%; in [7] it was 100%; in series [8], 100%.

In the case of `N#CCC(=O)NCc1cc(-c2cnn(-c3c(Cl)cc(C(F)(C(F)(F)F)C(F)(F)F)cc3Br)c2)ccc1Cl` [Ia-137, N-(5-{1-[2-bromo-6-chloro-4-(1,1,1,2,3,3,3-heptafluoropropan-2-yl)phenyl]-1H-pyrazol-4-yl}-2-chlorobenzyl)-2-cyanoacetamide], the efficacy in series [1] and in [7] was 100% in each case. Moreover, in series [3], the “efficacy (laying of fertile eggs)” value was determined as 100%. For the same molecule, the “efficacy (rate of extermination)” value in series [4] and in series [5] was 100% in each case. Also, the pest or weed control at 100 g/ha in series [6] and in [8] was 100% in each case. Further, the chromatographic logP is, setting by setting: under setting [11], 4.28; (reversed-phase C18 HPLC column, logP^a, HPLC-MS method a), reversed-phase column (C18)) 4.33.

Regarding `CC(=O)N(C)Cc1cccc(-c2cnn(-c3c(Cl)cc(C(F)(C(F)(F)F)C(F)(F)F)cc3Cl)c2)c1` [Ia-42], the “efficacy (laying of fertile eggs)” value in series [3] is 100%. In addition, the results for the “efficacy (rate of extermination)” value in [4] and in [5] were 100% and 80%, respectively. Further, the “nematicidal efficacy” value in [9] came out at 90%. For the same molecule, the efficacy in series [7] and in series [8] was 100% in each case.

Turning to `CCC(=O)NCc1cc(-c2cnn(-c3c(Cl)cc(C(F)(C(F)(F)F)C(F)(F)F)cc3[S+](C)[O-])c2)ccc1F` (stereo not shown) [Ia-45, N-(5-{1-[2-chloro-4-(1,1,1,2,3,3,3-heptafluoropropan-2-yl)-6-(methylsulfinyl)phenyl]-1H-pyrazol-4-yl}-2-fluorobenzyl)propanamide], the pest or weed control at 100 g/ha in series [8] is 100%. In addition, the chromatographic logP is 3.52 under setting [11] and 3.52 under setting [12].

As usually defined, the chromatographic logP is lipophilicity estimated from chromatographic retention. The low end stands for lower lipophilicity, the high end for higher lipophilicity.
